Values quoted from earlier work in patent US10201964B2, “Treatment for reducing the toxicity of 3D-printed parts” (The Regents of the University of California, priority 2015, dated 2019).

How the values were obtained:
[1] = when used as scaffolds

Compound | toxic effects on embryonic and fetal development (rat fetuses) | cardiovascular failure [1]
C=CC(=O)O [acrylic acid] | toxic effects on embryonic and fetal development in rat fetuses | –
C=C(C)C(=O)O [methacrylic acid] | toxic effects on embryonic and fetal development in rat fetuses | –
C=C(C)C(=O)OC [methylmethacrylate] | – | associated with irreversible cardiovascular failure
